Measurements as given in ChEMBL document CHEMBL3885861, “Open TG-GATES”.

Organism: Rattus norvegicus
Assay: Open TG-GATES - Regimen: Single
Assay type: toxicity, organism-based, Sprague-Dawley
Set-up: regimen Single, gender Male, age 6 weeks
Conditions: in vivo, po, route gavage; for APTT / Bas / Eos / Fbg / Hb / Ht / Lym / MCH / MCHC / MCV / Mono / Neu / PT / Plat / RBC / Ret / WBC: tissue Blood; for KIDNEY_L / KIDNEY_R / KIDNEY_TOTAL: tissue Kidney; for LIVER: tissue Liver; for A/G / ALP / ALT / AST / BUN / CRE / Ca / Cl / DBIL / GLC / IP / K / LDH / Na / PL / RALB / TBIL / TC / TG / TP / gamma-GTP: tissue Plasma
[1] = 30 mg/kg, 3 h, dose level Middle
[2] = 30 mg/kg, 6 h, dose level Middle
[3] = 30 mg/kg, 9 h, dose level Middle
[4] = 30 mg/kg, 24 h, dose level Middle
[5] = 100 mg/kg, 3 h, dose level High
[6] = 100 mg/kg, 6 h, dose level High
[7] = 100 mg/kg, 9 h, dose level High
[8] = 100 mg/kg, 24 h, dose level High

## CCCc1cc(=O)[nH]c(=S)[nH]1 [PROPYLTHIOURACIL]
[1]
  TERMINAL_BW: 179.8 g
  APTT: 16 s
  Bas: 0%
  Eos: 1%
  Fbg: 211.4 mg/dL
  Hb: 13.2 g/dL
  Ht: 40%
  Lym: 80.2%
  MCH: 22.2 pg
  MCHC: 33%
  MCV: 67.2 fL
  Mono: 5.6%
  Neu: 13.6%
  PT: 12.8 s
  Plat: 100.4 x10_4/uL
  RBC: 595.4 x10_4/ul
  Ret: 10.1%
  WBC: 101.6 x10_2/uL
  KIDNEY_L: 0.8 g
  KIDNEY_R: 0.8 g
  KIDNEY_TOTAL: 1.7 g
  LIVER: 8.4 g
  A/G: 2
  ALP: 1017.6 IU/L
  ALT: 32.6 IU/L
  AST: 65.4 IU/L
  BUN: 12 mg/dL
  CRE: 0.4 mg/dL
  Ca: 11.2 mg/dL
  Cl: 105.2 meq/L
  DBIL: 0.042 mg/dL
  GLC: 193.6 mg/dL
  IP: 10.8 mg/dL
  K: 4.4 meq/L
  LDH: 86.6 IU/L
  Na: 138.2 meq/L
  PL: 135 mg/dL
  RALB: 3.6 g/dL
  TBIL: 0.3 mg/dL
  TC: 77.2 mg/dL
  TG: 30.6 mg/dL
  TP: 5.5 g/dL
  gamma-GTP: 1.2 IU/L
[2]
  TERMINAL_BW: 177.6 g
  APTT: 16.2 s
  Bas: 0%
  Eos: 1%
  Fbg: 208.8 mg/dL
  Hb: 13.2 g/dL
  Ht: 39.3%
  Lym: 77.2%
  MCH: 22.2 pg
  MCHC: 33.5%
  MCV: 66.3 fL
  Mono: 6.8%
  Neu: 15.2%
  PT: 12.7 s
  Plat: 107.3 x10_4/uL
  RBC: 593.4 x10_4/ul
  Ret: 10.5%
  WBC: 83.3 x10_2/uL
  KIDNEY_L: 0.8 g
  KIDNEY_R: 0.9 g
  KIDNEY_TOTAL: 1.7 g
  LIVER: 8.1 g
  A/G: 2
  ALP: 892.6 IU/L
  ALT: 31.8 IU/L
  AST: 63.8 IU/L
  BUN: 12.8 mg/dL
  CRE: 0.5 mg/dL
  Ca: 11.2 mg/dL
  Cl: 105 meq/L
  DBIL: 0.062 mg/dL
  GLC: 182 mg/dL
  IP: 10.8 mg/dL
  K: 4.9 meq/L
  LDH: 89.6 IU/L
  Na: 138.4 meq/L
  PL: 127.4 mg/dL
  RALB: 3.7 g/dL
  TBIL: 0.3 mg/dL
  TC: 70.4 mg/dL
  TG: 36.4 mg/dL
  TP: 5.5 g/dL
  gamma-GTP: 1.8 IU/L
[3]
  TERMINAL_BW: 178.7 g
  APTT: 15.7 s
  Bas: 0%
  Eos: 1.6%
  Fbg: 216 mg/dL
  Hb: 13.3 g/dL
  Ht: 40%
  Lym: 73.4%
  MCH: 22.1 pg
  MCHC: 33.2%
  MCV: 66.6 fL
  Mono: 8.2%
  Neu: 17%
  PT: 12.7 s
  Plat: 102.7 x10_4/uL
  RBC: 601.2 x10_4/ul
  Ret: 9.8%
  WBC: 64.5 x10_2/uL
  KIDNEY_L: 0.9 g
  KIDNEY_R: 0.9 g
  KIDNEY_TOTAL: 1.7 g
  LIVER: 7.5 g
  A/G: 1.9
  ALP: 878.2 IU/L
  ALT: 30.4 IU/L
  AST: 61.6 IU/L
  BUN: 12.2 mg/dL
  CRE: 0.5 mg/dL
  Ca: 10.5 mg/dL
  Cl: 106.4 meq/L
  DBIL: 0 mg/dL
  GLC: 194.2 mg/dL
  IP: 10.6 mg/dL
  K: 4.7 meq/L
  LDH: 92.4 IU/L
  Na: 138.8 meq/L
  PL: 131 mg/dL
  RALB: 3.6 g/dL
  TBIL: 0.5 mg/dL
  TC: 77.6 mg/dL
  TG: 33.8 mg/dL
  TP: 5.5 g/dL
  gamma-GTP: 1 IU/L
[4]
  TERMINAL_BW: 189 g
  APTT: 16 s
  Bas: 0%
  Eos: 1%
  Fbg: 206.6 mg/dL
  Hb: 13.6 g/dL
  Ht: 40.7%
  Lym: 78%
  MCH: 21.9 pg
  MCHC: 33.5%
  MCV: 65.2 fL
  Mono: 9%
  Neu: 12.4%
  PT: 12.3 s
  Plat: 101.4 x10_4/uL
  RBC: 623.4 x10_4/ul
  Ret: 9.1%
  WBC: 101.7 x10_2/uL
  KIDNEY_L: 0.9 g
  KIDNEY_R: 0.9 g
  KIDNEY_TOTAL: 1.7 g
  LIVER: 9.5 g
  A/G: 2
  ALP: 911.4 IU/L
  ALT: 40.8 IU/L
  AST: 65 IU/L
  BUN: 16.8 mg/dL
  CRE: 0.5 mg/dL
  Ca: 11 mg/dL
  Cl: 106.8 meq/L
  DBIL: 0.018 mg/dL
  GLC: 185.4 mg/dL
  IP: 7.1 mg/dL
  K: 5 meq/L
  LDH: 90.6 IU/L
  Na: 139.8 meq/L
  PL: 157.4 mg/dL
  RALB: 3.8 g/dL
  TBIL: 0.3 mg/dL
  TC: 85.2 mg/dL
  TG: 112 mg/dL
  TP: 5.7 g/dL
  gamma-GTP: 1.2 IU/L
[5]
  TERMINAL_BW: 180.9 g
  APTT: 15.7 s
  Bas: 0%
  Eos: 0.6%
  Fbg: 210 mg/dL
  Hb: 13.3 g/dL
  Ht: 39.7%
  Lym: 82.6%
  MCH: 21.7 pg
  MCHC: 33.3%
  MCV: 65.1 fL
  Mono: 5.8%
  Neu: 10.8%
  PT: 12.9 s
  Plat: 99.3 x10_4/uL
  RBC: 611.2 x10_4/ul
  Ret: 9.7%
  WBC: 96.7 x10_2/uL
  KIDNEY_L: 0.8 g
  KIDNEY_R: 0.8 g
  KIDNEY_TOTAL: 1.6 g
  LIVER: 8.3 g
  A/G: 1.9
  ALP: 858.8 IU/L
  ALT: 38 IU/L
  AST: 70.2 IU/L
  BUN: 12.6 mg/dL
  CRE: 0.4 mg/dL
  Ca: 10.9 mg/dL
  Cl: 105 meq/L
  DBIL: 0.03 mg/dL
  GLC: 189.4 mg/dL
  IP: 10.9 mg/dL
  K: 4.2 meq/L
  LDH: 141 IU/L
  Na: 138.4 meq/L
  PL: 138 mg/dL
  RALB: 3.7 g/dL
  TBIL: 0.3 mg/dL
  TC: 83.4 mg/dL
  TG: 27 mg/dL
  TP: 5.6 g/dL
  gamma-GTP: 2 IU/L
[6]
  TERMINAL_BW: 176.2 g
  APTT: 16.5 s
  Bas: 0%
  Eos: 0.6%
  Fbg: 213.2 mg/dL
  Hb: 13.2 g/dL
  Ht: 39.9%
  Lym: 76%
  MCH: 21.6 pg
  MCHC: 33.2%
  MCV: 65 fL
  Mono: 5.2%
  Neu: 18.2%
  PT: 12.8 s
  Plat: 106.5 x10_4/uL
  RBC: 612.8 x10_4/ul
  Ret: 9.9%
  WBC: 77.1 x10_2/uL
  KIDNEY_L: 0.8 g
  KIDNEY_R: 0.8 g
  KIDNEY_TOTAL: 1.6 g
  LIVER: 7.5 g
  A/G: 2.1
  ALP: 762.4 IU/L
  ALT: 27.8 IU/L
  AST: 64 IU/L
  BUN: 11.4 mg/dL
  CRE: 0.4 mg/dL
  Ca: 11 mg/dL
  Cl: 105.4 meq/L
  DBIL: 0.048 mg/dL
  GLC: 186.8 mg/dL
  IP: 10.5 mg/dL
  K: 4.6 meq/L
  LDH: 139.2 IU/L
  Na: 139 meq/L
  PL: 136.6 mg/dL
  RALB: 3.8 g/dL
  TBIL: 0.4 mg/dL
  TC: 78.8 mg/dL
  TG: 23 mg/dL
  TP: 5.6 g/dL
  gamma-GTP: 2 IU/L
[7]
  TERMINAL_BW: 173.6 g
  APTT: 15.9 s
  Bas: 0%
  Eos: 1.2%
  Fbg: 207.4 mg/dL
  Hb: 12.9 g/dL
  Ht: 38.8%
  Lym: 73.6%
  MCH: 21.7 pg
  MCHC: 33.3%
  MCV: 65.1 fL
  Mono: 8.2%
  Neu: 17.2%
  PT: 12.8 s
  Plat: 110.6 x10_4/uL
  RBC: 597.2 x10_4/ul
  Ret: 9.9%
  WBC: 65.2 x10_2/uL
  KIDNEY_L: 0.8 g
  KIDNEY_R: 0.8 g
  KIDNEY_TOTAL: 1.6 g
  LIVER: 7 g
  A/G: 1.9
  ALP: 879.2 IU/L
  ALT: 31.2 IU/L
  AST: 68 IU/L
  BUN: 13.6 mg/dL
  CRE: 0.4 mg/dL
  Ca: 10.8 mg/dL
  Cl: 108 meq/L
  DBIL: 0.008 mg/dL
  GLC: 186.6 mg/dL
  IP: 10.4 mg/dL
  K: 4.8 meq/L
  LDH: 176.8 IU/L
  Na: 139.4 meq/L
  PL: 141.4 mg/dL
  RALB: 3.6 g/dL
  TBIL: 0.4 mg/dL
  TC: 83.2 mg/dL
  TG: 28 mg/dL
  TP: 5.5 g/dL
  gamma-GTP: 1.4 IU/L
[8]
  TERMINAL_BW: 186.8 g
  APTT: 15.6 s
  Bas: 0%
  Eos: 1%
  Fbg: 217 mg/dL
  Hb: 13.1 g/dL
  Ht: 39.5%
  Lym: 77.6%
  MCH: 21.7 pg
  MCHC: 33%
  MCV: 65.7 fL
  Mono: 7.2%
  Neu: 14.6%
  PT: 12.2 s
  Plat: 108.5 x10_4/uL
  RBC: 601.8 x10_4/ul
  Ret: 9.3%
  WBC: 115.2 x10_2/uL
  KIDNEY_L: 0.9 g
  KIDNEY_R: 0.9 g
  KIDNEY_TOTAL: 1.7 g
  LIVER: 9.9 g
  A/G: 1.8
  ALP: 1169.8 IU/L
  ALT: 42.6 IU/L
  AST: 69.2 IU/L
  BUN: 17.4 mg/dL
  CRE: 0.5 mg/dL
  Ca: 11.2 mg/dL
  Cl: 106.8 meq/L
  DBIL: 0.014 mg/dL
  GLC: 175.2 mg/dL
  IP: 8.1 mg/dL
  K: 5 meq/L
  LDH: 192.4 IU/L
  Na: 139.8 meq/L
  PL: 170.6 mg/dL
  RALB: 3.7 g/dL
  TBIL: 0.3 mg/dL
  TC: 97.8 mg/dL
  TG: 107 mg/dL
  TP: 5.7 g/dL
  gamma-GTP: 1.2 IU/L
